The assay has as its target T1, CRTH2 (Homo sapiens, UniProt Q9Y5Y4).
T1 construct: expressed in transfected cells; host or cells: KB8 cells (human)
T1 sequence (Q9Y5Y4 1-395): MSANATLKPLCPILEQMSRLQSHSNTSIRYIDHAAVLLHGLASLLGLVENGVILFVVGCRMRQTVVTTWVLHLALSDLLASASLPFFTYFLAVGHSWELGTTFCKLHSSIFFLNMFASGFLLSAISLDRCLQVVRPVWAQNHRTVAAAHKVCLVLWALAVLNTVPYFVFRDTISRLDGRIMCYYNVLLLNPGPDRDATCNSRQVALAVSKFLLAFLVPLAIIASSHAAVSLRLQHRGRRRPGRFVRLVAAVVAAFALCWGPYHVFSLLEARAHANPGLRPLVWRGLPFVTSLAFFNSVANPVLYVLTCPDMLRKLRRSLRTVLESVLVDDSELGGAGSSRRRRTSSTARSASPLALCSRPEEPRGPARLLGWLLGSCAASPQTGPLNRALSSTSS
The assay can be described thus: CRTH2 antagonist test: inhibition of PGD2-induced intracellular calcium ion concentration increase in KB8 cells. It is filed as cell-based. The settings on record: KB8 cells (human cells expressing CRTH2); PGD2 final concentration 100 nM; Fluo-4-AM, FDSS6000. On the procedure: The antagonist activity of the compound of the present invention was considered by using the intracellular calcium ion concentration increase reaction induced when the prostaglandin D2 was added to KB8 cells, which are human cells on which CRTH2 is expressed.
Fluo-4-AM (SIGMA, final concentration: 1 μM) was added to KB8 cells, and the cells were incubated at 37° C. for 30 minutes, washed with phosphate buffer (Invitrogen), and then suspended in Hank's balanced salt solution (Invitrogen) containing a reaction buffer solution (10 mM HEPES (Invitrogen), and 1 mM calcium chloride (SIGMA)). The suspension was dispensed in a 96 well plate (Nunc) so that 2×10^5 cells/well were placed, and the compound of the present invention and PGD2 (final concentration: 100 nM) were added. The fluorescence intensity thereof was measured over time by using FDSS6000 (Hamamatsu Photonics), and thus the maximum fluorescence intensity value “d” was obtained. The same procedure was carried out in the absence of the compound, and the maximum fluorescence intensity value “e” was obtained; and the same procedure was carried out in the absence of the compound and in […], and the maximum fluorescence intensity value “f” was obtained.
The calcium ion concentration increase inhibition rate of a compound was calculated by the following calculation equation:
Inhibitory rate(%)=[1−(d−f)/(e−f)]×100
That is to say, by using calcium ion concentration increase inhibitory rates of compounds to be tested having various concentrations, the IC50 value was calculated according to a dose-dependent inhibition curve analyzed by using XLfit (IDBS) as a data analysis software, and the value was defined as an indicator of the antagonist activity.
Background: A change in cytosolic calcium serves as a functional read-out for many receptors and channels.

A word on the IC50: it is the midpoint of a concentration-inhibition curve.

Regarding `O=C(O)Cc1cnc(Cc2ccc(C(=O)NCCc3ccc(Cl)cc3)c(F)c2)c2ccccc12` [Example 6, [1-(4-{[2-(4-chlorophenyl)ethyl]carbamoyl}-3-fluorobenzyl)isoquinolin-4-yl]acetic acid], the IC50 was found to be 8.7 nM.

Regarding `O=C(O)Cc1cnc(C(F)(F)c2ccc(C(=O)NCCc3ccc(Cl)cc3)cc2)c2ccccc12` [Example 2, {1-[(4-{[2-(4-chlorophenyl)ethyl]carbamoyl}phenyl)(difluoro)methyl]isoquinolin-4-yl}acetic acid], the half-inhibitory concentration (IC50) is 36 nM.

Regarding `O=C(O)Cc1cnc(Cc2ccc(C(=O)NCCc3ccc(Cl)cc3)c(C(F)(F)F)c2)c2ccccc12` [Example 7, {1-[4-{[2-(4-chlorophenyl)ethyl]carbamoyl}-3-(trifluoromethyl)benzyl]isoquinolin-4-yl}acetic acid], the IC50 worked out at 14 nM.

`O=C(O)Cc1cnc(Cc2ccc(C(=O)NCCc3ccc(Cl)cc3)cc2F)c2ccccc12` [Example 4, [1-(4-{[2-(4-chlorophenyl)ethyl]carbamoyl}-2-fluorobenzyl)isoquinolin-4-yl]acetic acid]: the IC50 was determined as 15 nM.

Consider `CC(c1ccc(C(=O)NCCc2ccc(Cl)cc2)cc1)c1ncc(CC(=O)O)c2ccccc12` (stereo not shown) [Example 1, {1-[1-(4-{[2-(4-chlorophenyl)ethyl]carbamoyl}phenyl)ethyl]isoquinolin-4-yl}acetic acid], for which the IC50 was determined as 4.4 nM.

Take `Cc1cc(Cc2ncc(CC(=O)O)c3ccccc23)ccc1C(=O)NCCc1ccc(Cl)cc1` [Example 5, [1-(4-{[2-(4-chlorophenyl)ethyl]carbamoyl}-3-methylbenzyl)isoquinolin-4-yl]acetic acid]: the IC50 turned out to be 42 nM.

With `COc1cc(Cc2ncc(CC(=O)O)c3ccccc23)ccc1C(=O)NCCc1ccc(Cl)cc1` [Example 3, [1-(4-{[2-(4-chlorophenyl)ethyl]carbamoyl}-3-methoxybenzyl)isoquinolin-4-yl]acetic acid], the IC50 worked out at 17 nM.

The values above are taken from patent publication US20130096310A1, “ISOQUINOLINE DERIVATIVE” (TAISHO PHARMACEUTICAL CO., LTD., priority 2010, published 2013).
